From PubChem BioAssay (NCI)
Several values for one entry are separate records, joined by “and”; a condition that tells them apart may be missing. Equal entries are not always repeated.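 A five-concentration, 48-hour dose response in 96-well plates underlies each endpoint, interpolated linearly between surrounding concentrations. GI50 = concentration required for 50% inhibition of growth. TGI is the concentration that stops growth completely.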

Legend:
Experiment in all cases: DTP human tumour cell line panel, 48 h
HCT-116 colon = test system: HCT-116 colon
SF-268 CNS = test system: SF-268 CNS
HCC-2998 colon = test system: HCC-2998 colon
UACC-62 melanoma = test system: UACC-62 melanoma
EKVX NSCLC = test system: EKVX NSCLC
KM12 colon = test system: KM12 colon
UO-31 renal = test system: UO-31 renal
RXF 393 renal = test system: RXF 393 renal

SMILES	GI50 (HCT-116 colon)	TGI (HCT-116 colon)	GI50 (SF-268 CNS)	TGI (SF-268 CNS)	GI50 (HCC-2998 colon)	TGI (HCC-2998 colon)	GI50 (UACC-62 melanoma) [µM]	TGI (UACC-62 melanoma)	GI50 (EKVX NSCLC)	TGI (EKVX NSCLC)	GI50 (KM12 colon)	TGI (KM12 colon)	GI50 (UO-31 renal)	TGI (UO-31 renal)	GI50 (RXF 393 renal) [µM]	TGI (RXF 393 renal)
Cc1cc(I)cc(CN(C)CCCN2CCCCC2)c1O	9.24 µM	21.3 µM	13.1 µM	27.5 µM	14 µM	27.2 µM	14.2	41.6 µM	16.3 µM	37.3 µM	16.5 µM	39.6 µM	11.8 µM	31.1 µM	11.7	26.6 µM
CC1(C)C2CCC(=O)C1CC2 (centres undefined)		> 100 µM		> 100 µM		> 100 µM		> 100 µM				> 100 µM		> 100 µM		> 100 µM
Fc1cc2[nH]ncc2c2c3c(c(-c4cn[nH]c4)nc12)CCCC3	0.498 µM	> 37.5 µM	1.31 µM	4.01 µM	1.52 µM	5.75 µM	0.632	2.31 µM	0.795 µM	3.98 µM	1 µM	7.38 µM	0.896 µM	3.87 µM	0.275	1.27 µM
COc1c(Cl)c(=O)oc2ccc(Cl)cc12		> 100 µM		> 100 µM		> 100 µM		> 100 µM		> 100 µM		> 100 µM		> 100 µM		> 100 µM
CCN(CC)c1ccc(-c2cc(-c3cc(OC)c(OC)c(OC)c3)nc(N3CCOCC3)c2C#N)cc1	0.457 µM	21.1 µM	5.96 µM	> 100 µM	1.97 µM	11.1 µM	0.379	2.55 µM	2.64 µM	> 100 µM	1.99 µM	> 85.9 µM	2.99 µM	> 100 µM	1.01	21 µM
Cc1c2c(nn1-c1ccc(S(=O)(=O)/N=C3\SCCC(=O)N3c3ccccc3)cc1)-c1ccccc1CC2	> 100 µM	> 100 µM	35 µM	> 100 µM	> 100 µM	> 100 µM	> 100	> 100 µM	94 µM	> 100 µM	> 100 µM	> 100 µM	> 100 µM	> 100 µM	70.9	> 100 µM
O=C(CCc1nnc2sc(-c3ccc(Cl)cc3Cl)nn12)c1nc2ncccc2[nH]1	1.3 µM	2.65 µM	3.99 µM	21.4 µM	1.77 µM	3.32 µM	1.65	3.31 µM	2.71 µM	7.98 µM	1.83 µM	3.56 µM	1.13 µM	2.33 µM	1.8	3.34 µM
COc1cc(OC)cc(-c2cc(=O)c3c(OC)c(OC)c(OC)c(OC)c3o2)c1		> 100 µM		> 100 µM		> 100 µM		> 100 µM		> 100 µM				> 100 µM		84.8 µM
Cc1cc2c(cc1Cl)SC(N(N(C)C)S(=O)(=O)c1ccc(Cl)cc1)=NS2(=O)=O	23.6 µM	71.1 µM	32.4 µM	> 100 µM	17 µM	44.6 µM	22	56.1 µM	26.6 µM	79.6 µM	22.9 µM	> 100 µM	28.3 µM	> 100 µM	31.3	> 100 µM
O=C1OC(O)[C@@H]2[C@H]1[C@H]1CC[C@@H]2O1 (some centres undefined)	42.9 µM	> 100 µM	> 100 µM	> 100 µM	2.19 µM	4.41 µM	> 100	> 100 µM	> 100 µM	> 100 µM	21.5 µM	72.8 µM	66.6 µM	> 100 µM	57	> 100 µM
CN(C)CCSC1=Nc2ccc(Cl)cc2C(c2ccccc2Cl)=NC1	13.8 µM and 58.4 µM	31.1 µM and > 100 µM	13.9 µM and 99.4 µM	28.2 µM and > 100 µM	13.4 µM and > 100 µM	30.3 µM and > 100 µM		19.1 µM and > 100 µM	14.8 µM and 43.4 µM	29.9 µM and > 100 µM	16.5 µM and 44.1 µM	34.3 µM and > 100 µM	9.23 µM and 53.4 µM	21.8 µM and > 100 µM		15.9 µM and > 100 µM
O=S(=O)(CCn1c(Sc2ccccc2)c(Sc2ccccc2)c2ccccc21)c1ccccc1		> 100 µM		> 100 µM		> 100 µM		> 100 µM		> 100 µM		> 100 µM		> 100 µM		
COc1ccc(-c2nnc(COc3ccc(NC(=O)Nc4cc(C(F)(F)F)cc(C(F)(F)F)c4)cc3F)o2)cc1	1.63 µM	3.98 µM	3.04 µM	9.94 µM	2.42 µM	5.92 µM	2.11	7.13 µM			1.51 µM	3.7 µM	2.09 µM	7.84 µM	1.96	6.06 µM
Cc1cc(-c2ccc3nc(C4CCOCC4)n(CCOC(F)(F)F)c3c2)cn(C)c1=O		14.8 µM	1.65 µM	80.2 µM				2.06 µM	0.761 µM	> 100 µM	0.724 µM	11.4 µM		> 20.7 µM	0.885	6.34 µM
CC(C)C(C)/C=C\C(C)C1CCC2C3=CC=C4CC(O)CCC4(C)C3CCC21C (centres undefined)		> 57.2 µM		> 70.2 µM				> 66.6 µM		> 64.8 µM		> 100 µM		> 79 µM		> 58.7 µM
COc1cc(C2c3cc4c(cc3OC(C)(O)C2C)OCO4)cc(OC)c1OC (centres undefined)		75.2 µM		> 100 µM		> 100 µM				> 100 µM		57.6 µM		81.5 µM		
N#CC(C#N)=CNC(N)=S		> 100 µM		> 100 µM		> 100 µM		> 100 µM		> 100 µM		> 100 µM				> 100 µM
C[C@@H]1CCC2[C@@H](C)[C@@H](OCC(CO[C@H]3OC4O[C@@]5(C)CC[C@H]6[C@H](C)CCC([C@H]3C)[C@@]46OO5)OC(=O)CCC(=O)O)OC3O[C@@]4(C)CC[C@@H]1[C@]32OO4 (some centres undefined)	< 0.01 µM	14.6 µM		20.1 µM			0.0765	21.2 µM	3.03 µM	41 µM	< 0.01 µM		1.57 µM	> 46 µM	< 0.01	0.205 µM
OC(c1nc2ccccc2[nH]1)C(O)C(O)C(O)c1nc2ccccc2[nH]1 (centres undefined)		> 100 µM		> 100 µM				> 100 µM		> 100 µM		> 100 µM		> 100 µM		> 100 µM
